What all share (assay): biochemical
What all share (parameters): Eurofins KinaseProfiler full panel at Km ATP, residual kinase activity (%) relative to DMSO

Experiment [1] addresses T1, GRK2(h) (Homo sapiens, UniProt P25098).
T1 sequence (P25098 1-689): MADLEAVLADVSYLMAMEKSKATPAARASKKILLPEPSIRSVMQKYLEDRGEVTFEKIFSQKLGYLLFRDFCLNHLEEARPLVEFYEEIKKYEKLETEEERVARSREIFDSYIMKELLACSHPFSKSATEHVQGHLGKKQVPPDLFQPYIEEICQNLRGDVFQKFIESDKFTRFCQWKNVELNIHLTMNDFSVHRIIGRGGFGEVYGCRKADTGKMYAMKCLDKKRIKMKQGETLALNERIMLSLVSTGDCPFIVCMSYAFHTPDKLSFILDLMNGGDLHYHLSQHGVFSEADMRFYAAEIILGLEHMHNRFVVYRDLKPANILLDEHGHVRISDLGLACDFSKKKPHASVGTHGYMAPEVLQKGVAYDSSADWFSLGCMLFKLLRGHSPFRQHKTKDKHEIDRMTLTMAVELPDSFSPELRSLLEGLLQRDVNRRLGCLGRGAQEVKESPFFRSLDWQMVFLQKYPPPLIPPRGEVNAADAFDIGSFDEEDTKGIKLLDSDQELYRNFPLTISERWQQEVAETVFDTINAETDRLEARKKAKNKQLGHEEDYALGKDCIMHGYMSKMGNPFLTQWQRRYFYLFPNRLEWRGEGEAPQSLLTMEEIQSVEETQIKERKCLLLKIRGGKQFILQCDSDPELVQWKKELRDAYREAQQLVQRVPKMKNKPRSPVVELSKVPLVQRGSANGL
How it is done: (§1) Eurofins performed a “Full KP Panel [Km ATP], KinaseProfile” which contains 429 radiometric kinase activity assays. The remaining kinase activity (%) was determined after treatment with the compounds at a concentration of 10 µM (Cfr. supporting information). Since we could not confirm the interaction between Spautin-1 analogues and USP13, a kinase screening was performed using a set of four compounds (Spautin-1 and three analogues) to discover off-targets and identify kinases that are potentially responsible for the reduction in cell viability observed in our screen (Table 2). The KINOMEscan from Eurofins was performed (see Table S1). This screen consists of a competitive binding assay in which the DNA-tagged kinase is incubated with one of the compounds in the presence of immobilized active site binding ligands. Binding of the compounds to the kinase hampers the binding of the kinase to the ligands and this inhibition was quantified by qPCR. The residual kinase activity, which represents the percentage of kinase attached to the immobilized ligands, was determined for 428 kinases at a standard screening concentration of 10 µM of the compounds dissolved in DMSO [61].

Experiment [2] deals with T2, TAO3(h) (Homo sapiens, UniProt Q9H2K8).
T2 construct: gene TAOK3
T2 sequence (Q9H2K8 1-898): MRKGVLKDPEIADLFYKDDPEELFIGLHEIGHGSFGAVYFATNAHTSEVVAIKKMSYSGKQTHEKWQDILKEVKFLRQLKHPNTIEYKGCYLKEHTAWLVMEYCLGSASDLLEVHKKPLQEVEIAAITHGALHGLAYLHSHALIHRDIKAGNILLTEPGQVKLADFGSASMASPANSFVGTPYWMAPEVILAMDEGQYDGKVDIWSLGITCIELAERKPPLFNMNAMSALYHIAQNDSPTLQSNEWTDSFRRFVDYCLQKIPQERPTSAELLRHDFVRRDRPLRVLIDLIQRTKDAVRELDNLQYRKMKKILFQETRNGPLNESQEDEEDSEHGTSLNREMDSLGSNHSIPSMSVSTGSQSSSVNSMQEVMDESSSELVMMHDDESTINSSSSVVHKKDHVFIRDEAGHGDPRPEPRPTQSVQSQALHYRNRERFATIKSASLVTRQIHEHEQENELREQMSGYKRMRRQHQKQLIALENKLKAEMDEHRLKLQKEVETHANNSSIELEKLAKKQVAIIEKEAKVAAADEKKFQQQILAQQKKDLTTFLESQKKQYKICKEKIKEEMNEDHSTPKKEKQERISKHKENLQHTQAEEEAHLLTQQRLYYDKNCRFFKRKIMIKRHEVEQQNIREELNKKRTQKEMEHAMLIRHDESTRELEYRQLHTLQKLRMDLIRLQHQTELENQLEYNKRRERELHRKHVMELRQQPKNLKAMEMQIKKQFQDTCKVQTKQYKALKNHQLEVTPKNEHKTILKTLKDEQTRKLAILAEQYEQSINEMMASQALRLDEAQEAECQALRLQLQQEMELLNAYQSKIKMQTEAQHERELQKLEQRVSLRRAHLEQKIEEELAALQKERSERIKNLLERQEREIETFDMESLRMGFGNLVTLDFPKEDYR
As for the experimental part: as §1

Experiment [3] has as its target T3, IKKα(h) (Homo sapiens, UniProt O15111).
T3 construct: gene CHUK
T3 sequence (O15111 1-745): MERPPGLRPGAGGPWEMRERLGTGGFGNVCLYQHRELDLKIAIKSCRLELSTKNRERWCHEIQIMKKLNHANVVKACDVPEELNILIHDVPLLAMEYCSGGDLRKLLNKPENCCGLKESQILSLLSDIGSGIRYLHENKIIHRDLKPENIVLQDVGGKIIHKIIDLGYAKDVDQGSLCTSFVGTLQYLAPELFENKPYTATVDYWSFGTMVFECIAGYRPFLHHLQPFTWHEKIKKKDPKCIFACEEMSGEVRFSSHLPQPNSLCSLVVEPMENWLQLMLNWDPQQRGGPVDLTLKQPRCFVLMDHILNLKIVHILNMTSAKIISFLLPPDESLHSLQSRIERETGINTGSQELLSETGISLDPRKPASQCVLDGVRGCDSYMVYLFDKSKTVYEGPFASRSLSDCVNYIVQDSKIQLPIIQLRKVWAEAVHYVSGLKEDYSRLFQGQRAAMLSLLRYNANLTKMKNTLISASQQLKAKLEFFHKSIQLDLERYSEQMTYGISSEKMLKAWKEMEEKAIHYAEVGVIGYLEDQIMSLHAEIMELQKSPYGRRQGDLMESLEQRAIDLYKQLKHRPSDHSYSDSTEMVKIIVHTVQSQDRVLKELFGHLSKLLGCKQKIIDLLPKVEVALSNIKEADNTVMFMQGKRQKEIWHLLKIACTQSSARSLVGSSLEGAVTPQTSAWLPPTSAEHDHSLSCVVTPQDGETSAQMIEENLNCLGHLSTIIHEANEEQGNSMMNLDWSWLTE
How it is done:
as §1

The target in experiment [4] is CDK16/cyclinY(h) (Homo sapiens, UniProt Q00536). How it is done:
as §1

Setting [5] is: read-out: Residual activity (%) Spautin-1 5aa.
The mark [6] stands for this setting: read-out: Residual activity (%) 5as.
Setting [7] is: read-out: Residual activity (%) 5at.
[8] abbreviates: read-out: Residual activity (%) 5ay.

Molecules are shown by their SMILES. Like-named read-outs stand apart in the source and are kept apart here.

Sequence of CDK16/cyclinY(h) (Q00536 whole entry): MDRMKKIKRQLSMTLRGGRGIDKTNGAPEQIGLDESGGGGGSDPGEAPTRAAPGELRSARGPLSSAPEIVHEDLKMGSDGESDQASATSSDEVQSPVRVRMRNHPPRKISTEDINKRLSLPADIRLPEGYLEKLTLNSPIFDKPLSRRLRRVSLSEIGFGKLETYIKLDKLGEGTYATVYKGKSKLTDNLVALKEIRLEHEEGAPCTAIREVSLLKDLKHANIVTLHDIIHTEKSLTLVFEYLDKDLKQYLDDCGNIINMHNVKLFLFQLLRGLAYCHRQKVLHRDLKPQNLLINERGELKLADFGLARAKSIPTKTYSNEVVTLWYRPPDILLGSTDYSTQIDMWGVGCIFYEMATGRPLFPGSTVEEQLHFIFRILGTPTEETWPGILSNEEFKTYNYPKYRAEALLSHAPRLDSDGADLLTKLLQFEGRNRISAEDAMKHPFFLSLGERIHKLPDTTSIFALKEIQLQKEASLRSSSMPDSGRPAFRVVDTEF
Sequence of CDK16/cyclinY(h) (Q8ND76 whole entry partner): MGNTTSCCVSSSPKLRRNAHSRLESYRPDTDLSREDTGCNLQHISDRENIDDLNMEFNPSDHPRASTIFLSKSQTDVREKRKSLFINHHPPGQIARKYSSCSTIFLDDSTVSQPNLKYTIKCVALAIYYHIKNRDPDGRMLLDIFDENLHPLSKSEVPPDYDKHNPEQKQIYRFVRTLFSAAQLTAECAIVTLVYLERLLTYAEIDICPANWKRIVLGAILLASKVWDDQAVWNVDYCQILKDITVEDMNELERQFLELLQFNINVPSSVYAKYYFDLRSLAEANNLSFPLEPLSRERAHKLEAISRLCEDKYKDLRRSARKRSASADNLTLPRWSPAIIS

Take `Fc1ccc(CNc2ncnc3ccc(F)cc23)cc1` [5aa, 6-Fluoro-N-(4-fluorobenzyl)-4-Quinazolinamine]: the remaining activity at 10 µM is 107% in experiment [1] (setting [5]), 94% in experiment [2] (setting [5]), 72% in experiment [3] (setting [5]) and 90% in experiment [4] (setting [5]).

For `Fc1ccc(CCNc2ncnc3ccc(F)cc23)cc1` [5as, 6-Fluoro-N-[2-(4-Fluorophenyl)Ethyl]-4-Quinazolinamine], the remaining activity at 10 µM in experiment [1] (setting [6]) came out at 101%; in experiment [2] (setting [6]) it was 78%; in experiment [3] (setting [6]) it was 100%; in experiment [4] (setting [6]) it was 114%.

Consider `Fc1ccc2ncnc(NCCc3ccc(Cl)cc3)c2c1` [5at, N-[2-(4-Chlorophenyl)Ethyl]-6-Fluoro-4-Quinazolinamine], for which the remaining activity at 10 µM in experiment [1] (setting [7]) turned out to be 107%; in experiment [2] (setting [7]), 82%; in experiment [3] (setting [7]), 91%; in experiment [4] (setting [7]), 104%.

`COc1ccc2ncnc(Nc3cccc(F)c3)c2c1` [5ay, N-(3-Fluorophenyl)-6-Methoxy-4-Quinazolinamine]: the remaining activity at 10 µM in experiment [1] (setting [8]) is 95%; in experiment [2] (setting [8]), 77%; in experiment [3] (setting [8]) it was 86%; in experiment [4] (setting [8]) it was 81%.
